Converted amounts (≈) assume the structure as drawn.
test system: human rhinovirus (HRV) serotypes, panel B (HRV-3, -4, -5, -9, -16, -18, -38, -66, -75 and -67); assay: automated TCID-50 assay, rhinovirus-induced CPE in HeLa cells, panel B; format: cell-based; settings: Human rhinovirus sp., HRV3, 72 h, read-out: MIC50 (minimum concentration of the compound required to inhibit 50% of the tested serotypes)
Experimental: (§1) The MIC values were determined by an automated tissue culture infectious dose 50% (TCID-50) assay. HeLa cells in monoloyers in 96-well cluster plates were infected with a dilution of picornavirus which had been shown empirically to produce 80% to 100% cytopathic effect (CPE) in 3 days in the absence of drug. The compound to be tested was serially diluted through 10, 2-fold cycles and added to the infected cells. After a 3 day incubation at 33° C. and 2.5% carbon dioxide, the cells were fixed with a 5% solution of glutaraldehyde followed by staining with a 0.25% solution of crystal violet in water. The plates were then rinsed, dried, and the amount of stain remaining in the well (a measure of intact cells) was quantitated with an optical density reader. The MIC was determined to be the concentration of compound which protected 50% of the cells from picornavirus-induced CPE relative to an untreated picornavirus control.
(§2) In the above test procedures, representative compounds of formula I were tested against some the serotypes from either a panel of fifteen human rhinovirus (HRV) serotypes, (noted in the table as panel T) namely, HRV-2, -14, -1A, -1B, -6, -21, -22, -15, -25, -30, -50, -67, -89, -86 and -41 or against some of the serotypes from a panel of 10 human rhinovirus serotypes, namely HRV-3, -4, -5, -9, -16, -18, -38, -66, -75 and -67, (noted in the table as panel B) and the MIC value, expressed in micrograms per milliliter […], for each rhinopicornavirus serotype was determined for each picornavirus, example 1e is given as an example of the data. Then MIC50 values, which are the minimum concentrations of the compound required to inhibit 50% of the tested serotypes were determined.
(§3) The following Table gives the test results for representative compounds of the invention. The panel of picornaviruses used in the test appears before the MIC80 and MIC50 figure and the number of serotypes which the compound is tested against (n) is indicated after the MIC80 and MIC50 figure.

Row | SMILES | MIC50
1 | Cc1cc(CCCn2ccc3cc(-c4noc(C)n4)ccc32)on1 [Example 2c] | 50.9 µg/mL (≈ 158 µM)
2 | Cc1cc(CCCCn2ccc3cc(-c4noc(C(F)(F)F)n4)cc(C)c32)on1 [Example 2d] | 0.5 µg/mL (≈ 1.24 µM)
3 | Cc1cc(CCCCCn2ccc3cc(-c4noc(C(F)F)n4)cc(C)c32)on1 [Example 2e] | 3.13 µg/mL (≈ 7.82 µM)
4 | Cc1cc(CCCCCn2ccc3cc(-c4noc(C(F)(F)F)n4)cc(C)c32)on1 [Example 2f] | 0.307 µg/mL (≈ 0.734 µM)
5 | Cc1cc(CCCn2ccc3cc(-c4noc(C(F)F)n4)ccc32)on1 [Example 2g] | 69.4 µg/mL (≈ 194 µM)
6 | Cc1cc(CCCn2ccc3cc(-c4noc(C)n4)cc(C)c32)on1 [Example 2h] | 0.158 µg/mL (≈ 0.47 µM)
7 | Cc1cc(CCCn2ccc3cc(-c4noc(C(F)(F)F)n4)ccc32)on1 [Example 2i] | 0.549 µg/mL (≈ 1.46 µM)

test system: not listed separately; assay: automated TCID-50 assay, rhinovirus-induced CPE in HeLa cells, panel T; format: cell-based; settings: Human rhinovirus sp., HRV2, 72 h, read-out: MIC50 (minimum concentration of the compound required to inhibit 50% of the tested serotypes)
Experimental: as §1, §2, §3

Row | SMILES | MIC50
8 | Cc1cc(CCCCc2cc3cc(-c4noc(C)n4)ccc3o2)on1 [Example 1f] | 19.9 µg/mL (≈ 59 µM)
9 | Cc1cc(CCCc2cc3cc(-c4noc(C)n4)cc(C)c3o2)on1 [Example 1g] | 6.85 µg/mL (≈ 20.3 µM)
10 | Cc1cc(CCCCc2cc3cc(-c4noc(C)n4)cc(Cl)c3o2)on1 [Example 1h] | 0.124 µg/mL (≈ 0.333 µM)
11 | Cc1cc(CCCCc2cc3cc(-c4noc(C(F)(F)F)n4)cc(C)c3o2)on1 [Example 1i] | 37.4 µg/mL (≈ 92.2 µM)
12 | Cc1cc(CCCCCc2cc3cc(C(=O)O)ccc3o2)on1 [Example 1j] | 51.1 µg/mL (≈ 163 µM)
13 | Cc1cc(CCCCCc2cc3cc(C4=NCCO4)ccc3o2)on1 [Example 1k] | 0.585 µg/mL (≈ 1.73 µM)
14 | CCCCn1nnc(-c2cc(C)c3oc(CCCCc4cc(C)no4)cc3c2)n1 [Example 1l] | 49.8 µg/mL (≈ 127 µM)
15 | Cc1cc(CCCc2cc3cc(-c4nnn(C)n4)cc(C)c3o2)on1 [Example 1m] | 0.192 µg/mL (≈ 0.569 µM)
16 | Cc1cc(CCc2cc3cc(-c4nnn(C)n4)cc(C)c3o2)on1 [Example 1n] | 33.8 µg/mL (≈ 105 µM)

From patent US5523312A, “Antipicornaviral agents” (priority 1994, dated 1996)
